The values below come from patent US12590062B2, “PD-1/PD-L1 inhibitors” (Gilead Sciences, Inc., priority 2017, dated 2026).

As a reminder, the EC50 is the concentration at which the effect is half-maximal. A word on the AC50: it is the midpoint of the concentration-response curve, whichever way the signal moves. What is called IC50 is the concentration that inhibits the measured activity by half.

Test [1] addresses T1, PD-1/PD-L1 interaction (Homo sapiens, UniProt Q9NZQ7).
T1 construct: expressed in transfected cells; host or cells: CHO cells (aAPC-PD-L1) co-cultured with Jurkat cells overexpressing PD-1 and an NFAT-luciferase reporter
The test can be described thus: PD-1/PD-L1 NFAT reporter co-culture assay. It counts as cell-based. The following applies: Jurkat PD-1 NFAT-luciferase cells co-cultured with aAPC-PD-L1 CHO cells, 6 hrs at 37° C.; read-out: EC50 NFAT Luciferase. The essentials:
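Jurkat cells overexpressing PD-1 with NFAT-luciferase mixed with compounds and plated onto CHO aAPCs expressing anti-CD3 and PD-L1, RPMI with 2% FBS. Co-culture 6 h at 37 °C; luminescence read with ONE-Glo. EC50 from four-parameter fit.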

The target of test [2] is T2, PD-L1 (Homo sapiens, UniProt Q9NZQ7).
T2 construct: determine if they can specifically dimerize the extracellular domains of PD-L1
T2 sequence (Q9NZQ7 19-238 limits assumed): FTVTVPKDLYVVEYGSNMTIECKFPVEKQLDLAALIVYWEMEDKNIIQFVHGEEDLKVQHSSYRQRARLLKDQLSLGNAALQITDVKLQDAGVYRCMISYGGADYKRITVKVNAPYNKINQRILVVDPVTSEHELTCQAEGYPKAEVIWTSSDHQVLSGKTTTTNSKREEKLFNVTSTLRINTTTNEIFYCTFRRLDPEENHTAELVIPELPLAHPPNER
T2 sequence (Q9NZQ7 19-238 limits assumed): as above
The test can be described thus: PD-L1/PD-L1 dimerization biochemical protein-protein interaction assay (ALPHA). It counts as binding. The following applies: compound-induced PD-L1 dimerization, head prints '1 nM' (0.5 nM His-tagged PD-L1 and 0.5 nM FLAG-tagged PD-L1), read-out: AC50 PDL1 Dimer Alpha 1 nM. On the procedure:
PD-L1/PD-L1 Dimerization Biochemical Protein-Protein Interaction Assay:
Compounds were tested in biochemical protein-protein interaction assays to determine if they can specifically dimerize the extracellular domains of PD-L1. Dimerization of the proteins (His-tagged PD-L1 and FLAG-tagged PD-L1) is measured using a bead based Amplified Luminescent Proximity Homogeneous Assay (ALPHA) platform. […] Assays are performed in 25 mM Hepes (pH 7.4), 150 mM NaCl, 3.4 mM EDTA, 0.005% Tween 20, and 0.01% BSA. Final protein concentration in the assays were 0.5 nM (His tagged PD-L) and 0.5 nM (FLAG tagged PD-L1). After an assay reaction time of 2 hours at 25° C., 20 μg/mL (final assay concentration) ALPHA assay acceptor beads (anti-His coated) were added and incubated for 60 minutes at 25° C. Binding was measured following a final 60 minute incubation with 40 μg/mL (final assay concentration) ALPHA assay donor beads (anti-FLAG coated). AC50 values were calculated from the fit of the dose-response curves to a four-parameter equation (Table 3).

The target of test [3] is PD-1/PD-L1 (Homo sapiens, UniProt Q9NZQ7). As to the kind of experiment: PD-1/PD-L1 biochemical protein-protein interaction assay (ALPHA). It counts as binding. The following applies: 0.3 nM His tagged PD-L1, 2.5 nM biotinylated Fc-PD-1, 60 minutes at 25° C., read-out: IC50 PD-L1-PD-1 Alpha IC50-mono PD-L1-fcP-D1. The procedure, abridged:
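Compounds are tested for blocking the PD-1/PD-L1 extracellular-domain interaction using an ALPHA bead assay, in which inhibition lowers the luminescent signal. Reactions run 60 min at 25° C with 0.3 nM His-PD-L1 and 2.5 nM biotinylated Fc-PD-1. IC50 values come from four-parameter fits.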

T1 sequence (Q9NZQ7 19-290): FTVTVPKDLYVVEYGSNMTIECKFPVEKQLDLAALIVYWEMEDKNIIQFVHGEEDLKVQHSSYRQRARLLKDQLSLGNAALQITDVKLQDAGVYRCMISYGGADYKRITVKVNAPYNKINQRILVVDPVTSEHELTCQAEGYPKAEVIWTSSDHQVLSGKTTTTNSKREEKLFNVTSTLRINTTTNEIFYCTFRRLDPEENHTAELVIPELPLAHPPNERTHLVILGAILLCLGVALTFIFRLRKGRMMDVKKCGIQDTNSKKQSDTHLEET
PD-1/PD-L1, sequence (Q9NZQ7 19-238 limits assumed): as the sequence (Q9NZQ7 19-238 limits assumed) above

On to `COc1nc(-c2cccc(-c3cccc(COc4cc(OCc5cncc(C#N)c5)c(CN5CC[C@@H](O)C5)cc4Cl)c3C)c2C)ccc1CNC[C@@H](O)CC(=O)O` [Example 307, (S)-4-(((6-(3′-((2-chloro-5-((5-cyanopyridin-3-yl)methoxy)-4-(((R)-3-hydroxypyrrolidin-1-yl)methyl)phenoxy)methyl)-2,2′-dimethyl-[1,1′-biphenyl]-3-yl)-2-methoxypyridin-3-yl)methyl)amino)-3-hydroxybutanoic acid], for which the EC50 in test [1] came out at 702 nM. Also, the AC50 in test [2] was 599 nM. Besides, the IC50 in test [3] is 0.536 nM.

Regarding `Cc1c(COc2cc(OCc3cncc(C#N)c3)c(CN3CC[C@@H](O)C3)cc2Cl)cccc1-c1cccc(-c2ccc(CNC[C@@H](O)CC(=O)O)cc2)c1C` [Example 308, (S)-4-(((3″-((2-chloro-5-((5-cyanopyridin-3-yl)methoxy)-4-(((R)-3-hydroxypyrrolidin-1-yl)methyl)phenoxy)methyl)-2′,2″-dimethyl-[1,1′:3′,1″-terphenyl]-4-yl)methyl)amino)-3-hydroxybutanoic acid], in test [1], the half-maximal effective concentration (EC50) turned out to be 373 nM. For the same molecule, the AC50 in test [2] was found to be 203 nM. For the same molecule, in test [3], the concentration for half-maximal inhibition (IC50) is 0.346 nM.

As for `Cc1c(COc2cc(OCc3cncc(C#N)c3)c(CN3CC[C@@H](O)C3)cc2Cl)cccc1-c1cccc(-c2ccc(OCCNC[C@@H](O)CC(=O)O)cc2)c1C` [Example 309, (S)-4-((2-((3″-((2-chloro-5-((5-cyanopyridin-3-yl)methoxy)-4-(((R)-3-hydroxypyrrolidin-1-yl)methyl)phenoxy)methyl)-2′,2″-dimethyl-[1,1′:3′,1″-terphenyl]-4-yl)oxy)ethyl)amino)-3-hydroxybutanoic acid], in test [1], the 50% effective concentration (EC50) was 240 nM. Moreover, in test [2], the AC50 came out at 103 nM. The IC50 in test [3] was found to be 0.168 nM.

With `Cc1c(COc2cc(OCc3cncc(C#N)c3)c(CN[C@](C)(CO)C(=O)O)cc2Cl)cccc1-c1cccc(-c2ccc(OCCNCCO)c(S(C)(=O)=O)c2)c1C` [Example 310, (R)-2-((5-chloro-2-((5-cyanopyridin-3-yl)methoxy)-4-((4″-(2-((2-hydroxyethyl)amino)ethoxy)-2,2′-dimethyl-3″-(methylsulfonyl)-[1,1′:3′,1″-terphenyl]-3-yl)methoxy)benzyl)amino)-3-hydroxy-2-methylpropanoic acid], the EC50 in test [1] was 215 nM. Moreover, the AC50 in test [2] was 121 nM. Besides, in test [3], the IC50 was 0.069 nM.

Regarding `Cc1c(COc2cc(OCc3cncc(C#N)c3)c(CN[C@@](C)(CO)C(=O)O)cc2Cl)cccc1-c1cccc(-c2ccc(OCCNCCO)cc2)c1C` [Example 311, (S)-2-((5-chloro-2-((5-cyanopyridin-3-yl)methoxy)-4-((4″-(2-((2-hydroxyethyl)amino)ethoxy)-2, 2′-dimethyl-[1, 1′:3′,1″-terphenyl]-3-yl)methoxy)benzyl)amino)-3-hydroxy-2-methylpropanoic acid], the EC50 in test [1] was 104 nM. Also, the AC50 in test [2] is 75.5 nM. Besides, the IC50 in test [3] is 0.064 nM.

For `Cc1c(COc2cc(OCc3cncc(C#N)c3)c(CNC[C@@H](O)CC(=O)O)cc2Cl)cccc1-c1cccc(-c2ccc(OCCNC[C@@H](O)CC(=O)O)c(C(N)=O)c2)c1C` [Example 312, (S)-4-((2-((3-carbamoyl-3″-((4-((((S)-3-carboxy-2-hydroxypropyl)amino)methyl)-2-chloro-5-((5-cyanopyridin-3-yl)methoxy)phenoxy)methyl)-2′,2″-dimethyl-[1,1′:3′,1″-terphenyl]-4-yl)oxy)ethyl)amino)-3-hydroxybutanoic acid], the concentration for a half-maximal effect (EC50) in test [1] stood at 97 nM. Further, the AC50 in test [2] is 144 nM. In addition, the half-maximal inhibitory concentration (IC50) in test [3] came to 0.051 nM.
